According to patent US10940139B2, “Compounds that interact with the Ras superfamily for the treatment of cancers, inflammatory diseases, rasopathies, and fibrotic disease” (Shy Therapeutics LLC, priority 2017, dated 2021):

What was measured:
Assay in all cases: Ras GTP binding domain inhibition assay (labeled GTP)
[1] = target: KRas G12D/Q61H double mutant (Homo sapiens (Human), UniProt P01116, G12D/Q61H); settings: for inhibition at 20 µM: 20 μM compound, read-out: % Inhibition at 20 μM KRas G12D Q61H
Sequence of KRas G12D/Q61H double mutant (P01116-2 other isoform, or with tags, fused parts or gaps G12D/Q61H): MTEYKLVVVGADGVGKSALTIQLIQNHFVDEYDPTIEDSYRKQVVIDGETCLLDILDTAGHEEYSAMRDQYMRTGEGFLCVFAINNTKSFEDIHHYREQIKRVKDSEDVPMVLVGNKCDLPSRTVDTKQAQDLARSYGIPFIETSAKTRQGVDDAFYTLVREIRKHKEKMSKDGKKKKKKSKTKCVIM
Method in brief: (§1)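 His-tagged KRas protein (3-10 μg/ml) was captured overnight at 4° C on nickel-coated wells in 50 mM Tris pH 7.5, 1 mM MgCl2, 1 mM DTT. Bound labeled GTP was read by fluorescence after washing.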

[2] = target: KRas Q61H mutant (Homo sapiens (Human), UniProt P01116, Q61H); settings: 20 μM compound; read-out: % Inhibition at 20 μM KRas Q61H
Sequence of KRas Q61H mutant (P01116-2 other isoform, or with tags, fused parts or gaps Q61H): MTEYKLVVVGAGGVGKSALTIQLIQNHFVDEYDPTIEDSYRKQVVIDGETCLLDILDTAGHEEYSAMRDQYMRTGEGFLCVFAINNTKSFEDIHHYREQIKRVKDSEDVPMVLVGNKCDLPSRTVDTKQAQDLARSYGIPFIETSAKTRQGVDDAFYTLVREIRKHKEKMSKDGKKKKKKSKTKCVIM
Method in brief: as §1

[3] = target: KRas G12C/Q61H double mutant (Homo sapiens (Human), UniProt P01116, G12C/Q61H); settings: 20 μM compound; read-out: % Inhibition at 20 μM KRas G12C Q61H
Sequence of KRas G12C/Q61H double mutant (P01116-2 other isoform, or with tags, fused parts or gaps G12C/Q61H): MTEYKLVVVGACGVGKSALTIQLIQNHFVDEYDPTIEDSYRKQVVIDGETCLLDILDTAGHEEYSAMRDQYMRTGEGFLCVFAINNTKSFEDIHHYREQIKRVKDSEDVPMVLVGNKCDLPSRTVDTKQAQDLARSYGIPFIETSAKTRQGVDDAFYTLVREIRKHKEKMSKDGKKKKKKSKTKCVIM
Method in brief: as §1

O=C(c1csc2c(O)nc(-c3ccccn3)nc12)N1CCN(c2cccc(F)c2)CC1 [drawing 2753]
inhibition at 20 µM [1]: 25 to 50% | inhibition at 20 µM [2]: 76 to 100% | inhibition at 20 µM [3]: 51 to 75%

O=C(c1csc2c(O)nc(-c3ccccn3)nc12)N1CCN(c2ccc(F)cc2)CC1 [drawing 2754]
inhibition at 20 µM [1]: 0% | inhibition at 20 µM [2]: 25 to 50% | inhibition at 20 µM [3]: 25 to 50%

N#Cc1cccc(N2CCN(C(=O)c3csc4c(O)nc(-c5ccccn5)nc34)CC2)c1 [drawing 2755]
inhibition at 20 µM [1]: 1 to 25% | inhibition at 20 µM [2]: 25 to 50% | inhibition at 20 µM [3]: 25 to 50%

N#Cc1ccc(N2CCN(C(=O)c3csc4c(O)nc(-c5ccccn5)nc34)CC2)cc1 [drawing 2756]
inhibition at 20 µM [1]: 0% | inhibition at 20 µM [2]: 51 to 75% | inhibition at 20 µM [3]: 51 to 75%

COc1cc(OC)cc(N2CCN(C(=O)c3csc4c(O)nc(-c5ccccn5)nc34)CC2)c1 [drawing 2757]
inhibition at 20 µM [1]: 0% | inhibition at 20 µM [2]: 1 to 25% | inhibition at 20 µM [3]: 1 to 25%

COc1cc(N2CCN(C(=O)c3csc4c(O)nc(-c5ccccn5)nc34)CC2)cc(OC)c1OC [drawing 2758]
inhibition at 20 µM [1]: 0% | inhibition at 20 µM [2]: 25 to 50% | inhibition at 20 µM [3]: 1 to 25%

COc1ccc(N2CCN(C(=O)c3csc4c(O)nc(-c5ccccn5)nc34)CC2)c(OC)c1 [drawing 2759]
inhibition at 20 µM [1]: 25 to 50% | inhibition at 20 µM [2]: 51 to 75% | inhibition at 20 µM [3]: 51 to 75%

O=C(c1csc2c(O)nc(-c3ccccn3)nc12)N1CCN(c2ccc(F)cc2F)CC1 [drawing 2760]
inhibition at 20 µM [1]: 51 to 75% | inhibition at 20 µM [2]: 25 to 50% | inhibition at 20 µM [3]: 25 to 50%

O=C(c1csc2c(O)nc(-c3ccccn3)nc12)N1CCN(Cc2ccccc2)CC1 [drawing 2762]
inhibition at 20 µM [1]: 25 to 50% | inhibition at 20 µM [2]: 76 to 100% | inhibition at 20 µM [3]: 51 to 75%

O=C(c1csc2c(O)nc(-c3ccccn3)nc12)N1CCN(Cc2ccc(O)cc2)CC1 [drawing 2764]
inhibition at 20 µM [1]: 1 to 25% | inhibition at 20 µM [2]: 25 to 50% | inhibition at 20 µM [3]: 25 to 50%

O=C(c1csc2c(O)nc(-c3ccccn3)nc12)N1CCN(Cc2ccc(O)c(Cl)c2)CC1 [drawing 2765]
inhibition at 20 µM [1]: 25 to 50% | inhibition at 20 µM [2]: 76 to 100% | inhibition at 20 µM [3]: 76 to 100%

O=C(c1csc2c(O)nc(-c3ccccn3)nc12)N1CCOC(c2ccccc2)C1 (stereo not shown) [drawing 2766]
inhibition at 20 µM [1]: 1 to 25% | inhibition at 20 µM [2]: 51 to 75% | inhibition at 20 µM [3]: 25 to 50%

COc1ccccc1C1CN(C(=O)c2csc3c(O)nc(-c4ccccn4)nc23)CCO1 (stereo not shown) [drawing 2767]
inhibition at 20 µM [1]: 51 to 75% | IC50 ([1]; serial dilution, read-out: KRas G12D Q61H (classes E-H, IC50)): 11 to 30 µM | inhibition at 20 µM [2]: 76 to 100% | inhibition at 20 µM [3]: 51 to 75%

COc1ccc(C2CN(C(=O)c3csc4c(O)nc(-c5ccccn5)nc34)CCO2)cc1 (stereo not shown) [drawing 2768]
inhibition at 20 µM [1]: 25 to 50% | inhibition at 20 µM [2]: 25 to 50% | inhibition at 20 µM [3]: 25 to 50%

O=C(c1csc2c(O)nc(-c3ccccn3)nc12)N1CCOC(c2cccc(Cl)c2)C1 (stereo not shown) [drawing 2770]
inhibition at 20 µM [1]: 1 to 25% | inhibition at 20 µM [2]: 51 to 75% | inhibition at 20 µM [3]: 25 to 50%

O=C(c1csc2c(O)nc(-c3ccccn3)nc12)N1CCOC(Cc2ccccc2)C1 (stereo not shown) [drawing 2771]
inhibition at 20 µM [1]: 25 to 50% | inhibition at 20 µM [2]: 51 to 75% | inhibition at 20 µM [3]: 51 to 75%

COc1ccccc1C1CN(C(=O)c2csc3c(O)nc(-c4ccccn4)nc23)CCN1 (stereo not shown) [drawing 2772]
inhibition at 20 µM [1]: 25 to 50% | inhibition at 20 µM [2]: 76 to 100% | inhibition at 20 µM [3]: 51 to 75%

COc1ccc(C2CN(C(=O)c3csc4c(O)nc(-c5ccccn5)nc34)CCN2)cc1 (stereo not shown) [drawing 2774]
inhibition at 20 µM [1]: 1 to 25% | inhibition at 20 µM [2]: 76 to 100% | inhibition at 20 µM [3]: 76 to 100%

Cc1ccccc1C1CN(C(=O)c2csc3c(O)nc(-c4ccccn4)nc23)CCN1 (stereo not shown) [drawing 2775]
inhibition at 20 µM [1]: 25 to 50% | inhibition at 20 µM [2]: 76 to 100% | inhibition at 20 µM [3]: 51 to 75%

O=C(c1csc2c(O)nc(-c3ccccn3)nc12)N1CCNC(c2ccccc2F)C1 (stereo not shown) [drawing 2776]
inhibition at 20 µM [1]: 25 to 50% | inhibition at 20 µM [2]: 76 to 100% | inhibition at 20 µM [3]: 51 to 75%
